Assay results: publication PMC6429183, “Identification of Compounds That Inhibit Estrogen-Related Receptor Alpha Signaling Using High-Throughput Screening Assays” (Molecules, 2019)
Several values for one entry are separate records, joined by “and”; a condition that tells them apart may be missing. Equal entries are not always repeated. Where two headings read alike, the source gives them in different places.

Tests used:
COX4I1 = assay: qRT-PCR mRNA expression of ERR downstream gene COX4I1; format: cell-based; conditions: ERR reporter cells, vs GAPDH, DMSO = 0%
Procedure: Total RNA was isolated from treated ERR reporter cells using an RNeasy Mini Kit (Qiagen, Germantown, MD, USA), homogenized using a QIAshredder (Qiagen), and reverse transcribed with a High-Capacity RNA-to-cDNA™ Kit (ThermoFisher Scientific, Inc.) following the manufacturers’ instructions. Expression of ERRα, COX8α, IDH3α, PPARα, COX4I1, and cytochrome c genes was normalized against GAPDH. All primers were purchased from ThermoFisher Scientific, Inc. Real-time PCR assays were performed in 384-well plates on a QuantStudio 5 (Applied Biosystems, Foster City, CA, USA) with TaqMan™ Gene Expression Master Mix (ThermoFisher Scientific, Inc.). Induction values were calculated using the equation: Fold = 2^ΔΔCt, where ΔCt represents the differences in cycle threshold numbers between each of the target genes and GAPDH, and ΔΔCt represents the relative change in these differences between control and treatment groups. […]

[1] = test system: PGC/ERR reporter HEK293 cells; assay: CellTiter-Fluor cell viability assay multiplexed with PGC/ERR reporter assay; format: cell-based; conditions: for EC50: Homo sapiens
Procedure: (§1) ERR or PGC/ERR reporter HEK293 cells suspended in culture medium without puromycin were dispensed at 2500 cells/5 μL/well in tissue culture–treated 1536-well white assay plates (Greiner Bio-One North America, Monroe, NC, USA) using a Thermo Scientific Multidrop Combi (ThermoFisher Scientific, Inc.). […] After the cells were incubated at 37 °C with 5% CO2 for 6 h, 23 nL of compounds or control, XTC790, was transferred into the assay plates using a Wako Pintool station (Wako Automation, San Diego, CA, USA). The assay plates were incubated at 37 °C for 18 h, followed by the addition of 5 μL ONE-Glo luciferase reagent (Promega, Madison, WI, USA) using a Flying Reagent Dispenser (Aurora Discovery, Carlsbad, CA, USA). After 30 min of incubation at room temperature, the luminescence intensity of the assay plates was quantified using a ViewLux plate reader (PerkinElmer, Shelton, CT, USA). The assays were performed three times for each compound concentration. These ERR and PGC/ERR reporter assays were multiplexed with the CellTiter-Fluor Cell Viability Assay (Promega), a fluorescence-based cell viability assay, to assess compound cytotoxicity.
The qHTS data were analyzed as described previously. Each titration point was normalized relative to the positive control compound (XCT790 = −100%) and DMSO-only wells (0%) according to the following equation: % Activity = [(Vcompound − VDMSO)/(VDMSO − Vpos)] × 100, where Vcompound denotes the compound well values, Vpos denotes the median value of the positive control wells, and VDMSO denotes the median values of the DMSO-only wells. The DMSO-only compound plates at the beginning and end of the compound plate stack were used to correct the data set by applying an in-house pattern correction algorithm. The half maximum inhibition values (IC50) for each compound and maximum response (efficacy) values were obtained by fitting the concentration-response curves of each compound to a four-parameter Hill equation [91]. Compounds were designated as Class 1–4 according to the type of concentration–response curve observed. For each reading, the activity outcome of a test compound was first categorized by the average curve rank from the triplicate runs and the reproducibility calls. The final activity outcome of each compound was based on the ERR antagonist readout activity and cell viability counter screen.

[2] = test system: ERR reporter HEK293 cells; assay: CellTiter-Fluor cell viability assay multiplexed with ERR reporter assay; format: cell-based; conditions: for EC50: Homo sapiens; for ERR-HEK293 Follow-Up Viability EC50: follow-up screen
Procedure: as §1
The qHTS data were analyzed as described previously. […] The DMSO-only compound plates at the beginning and end of the compound plate stack were used to correct the data set by applying an in-house pattern correction algorithm. The half maximum inhibition values (IC50) for each compound and maximum response (efficacy) values were obtained by fitting the concentration-response curves of each compound to a four-parameter Hill equation [91]. […] For each reading, the activity outcome of a test compound was first categorized by the average curve rank from the triplicate runs and the reproducibility calls. The final activity outcome of each compound was based on the ERR antagonist readout activity and cell viability counter screen.

[3] = target: T1, estrogen-related receptor alpha (ERRα) (Homo sapiens, UniProt P11474); assay: ERR reporter (luciferase) antagonist qHTS assay, ERR-HEK293; conditions: for EC50: mean ± SD, triplicate; for ERR-HEK293 Follow-Up Efficacy: follow-up screen; for ERR-HEK293 Follow-Up Efficacy / ERR-HEK293 Primary Efficacy: relative to XCT790 = −100%; for activity in the ERR assay: in words; for ERR-HEK293 Primary Efficacy: primary qHTS, DMSO = 0%
T1 sequence (P11474 1-423): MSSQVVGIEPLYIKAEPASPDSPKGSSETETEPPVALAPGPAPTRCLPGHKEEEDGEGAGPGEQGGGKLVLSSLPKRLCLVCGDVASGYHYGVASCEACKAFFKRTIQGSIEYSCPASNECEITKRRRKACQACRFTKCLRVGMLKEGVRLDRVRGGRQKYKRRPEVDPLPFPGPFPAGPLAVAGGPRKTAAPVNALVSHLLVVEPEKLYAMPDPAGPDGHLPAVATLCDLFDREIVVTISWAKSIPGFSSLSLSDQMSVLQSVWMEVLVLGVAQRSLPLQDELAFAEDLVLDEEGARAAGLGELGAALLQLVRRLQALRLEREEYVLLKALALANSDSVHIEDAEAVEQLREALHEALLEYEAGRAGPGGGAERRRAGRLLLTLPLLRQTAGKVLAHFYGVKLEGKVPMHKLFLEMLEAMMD
Procedure: (§3) The ERR reporter HEK293 cells were cultured in high glucose DMEM medium (ThermoFisher Scientific, Inc., Waltham, MA, USA) supplemented with 10% fetal bovine serum (FBS; ThermoFisher Scientific, Inc.), 4 mM of L-glutamine (ThermoFisher Scientific, Inc.), 1 mM of sodium pyruvate (ThermoFisher Scientific, Inc.), 100 U/mL of penicillin and 100 mg/mL of streptomycin (ThermoFisher Scientific, Inc.). PGC/ERR reporter HEK293 cells were cultured in the same medium as the ERR reporter HEK293 cells with an additional 1 μg/mL puromycin (ThermoFisher Scientific, Inc.) as the selection marker for PGC-1α expression.
(§4) The DMSO-only compound plates at the beginning and end of the compound plate stack were used to correct the data set by applying an in-house pattern correction algorithm [90]. The half maximum inhibition values (IC50) for each compound and maximum response (efficacy) values were obtained by fitting the concentration-response curves of each compound to a four-parameter Hill equation [91]. […] For each reading, the activity outcome of a test compound was first categorized by the average curve rank from the triplicate runs and the reproducibility calls. The final activity outcome of each compound was based on the ERR antagonist readout activity and cell viability counter screen.

IDH3α = assay: qRT-PCR mRNA expression of ERR downstream gene IDH3α; format: cell-based; conditions: ERR reporter cells, vs GAPDH, DMSO = 0%
Procedure: (§2) Total RNA was isolated from treated ERR reporter cells using an RNeasy Mini Kit (Qiagen, Germantown, MD, USA), homogenized using a QIAshredder (Qiagen), and reverse transcribed with a High-Capacity RNA-to-cDNA™ Kit (ThermoFisher Scientific, Inc.) following the manufacturers’ instructions. Expression of ERRα, COX8α, IDH3α, PPARα, COX4I1, and cytochrome c genes was normalized against GAPDH. All primers were purchased from ThermoFisher Scientific, Inc. Real-time PCR assays were performed in 384-well plates on a QuantStudio 5 (Applied Biosystems, Foster City, CA, USA) with TaqMan™ Gene Expression Master Mix (ThermoFisher Scientific, Inc.). Induction values were calculated using the equation: Fold = 2^ΔΔCt, where ΔCt represents the differences in cycle threshold numbers between each of the target genes and GAPDH, and ΔΔCt represents the relative change in these differences between control and treatment groups. Experimental data are presented as a mean of triplicate determinations ± SD. Statistical comparisons were made by t-test, while the statistical significance was set at p values of <0.05 (light blue), <0.01 (medium blue), and <0.001 (dark blue).

cytochrome c = assay: qRT-PCR mRNA expression of ERR downstream gene cytochrome c; format: cell-based; conditions: ERR reporter cells, vs GAPDH, DMSO = 0%
Procedure: as §2

[4] = target: T2, ERRα with PGC-1α (PGC/ERR pathway) (Homo sapiens, UniProt P11474); assay: PGC/ERR reporter (luciferase) qHTS assay, PGC/ERR-HEK293; conditions: for EC50: mean ± SD, triplicate; for PGC/ERR-HEK293 Follow-Up Efficacy: follow-up screen; for PGC/ERR-HEK293 Follow-Up Efficacy / PGC/ERR-HEK293 Primary Efficacy: negative = antagonism, positive = agonism; for activity in the ERR/PGC assay: in words; for PGC/ERR-HEK293 Primary Efficacy: primary qHTS
T2 sequence (P11474 1-423): T1 sequence (P11474 1-423)
Procedure: as §3, §4

COX8α = assay: qRT-PCR mRNA expression of ERR downstream gene COX8α; format: cell-based; conditions: 3 µM; ERR reporter cells; vs GAPDH, DMSO = 0%
Procedure: as §2

[5] = test system: Nrf2/antioxidant response element (ARE); assay: Nrf2/ARE-HepG2 β-lactamase reporter agonist assay; format: cell-based; conditions: agonist mode, heatmap outcome
Procedure: After the assay plates were incubated at 37 °C for 5–6 h, 23 nL of compounds dissolved in DMSO or positive controls were transferred to the assay plates via a Wako Pintool station (Wako). Except for ARE and p53, all other assays received 1 µL/well agonist (10 nM R1881 for AR; 0.5 and 5 nM β-estradiol for ERα and ERβ respectively; 300 µM CDCA for FXR; 50 nM Rosiglitazone for PPARγ; and 5 nM R5020 for PR) or assay medium using a Flying Reagent Dispenser (FRD). The assay plates were incubated for 16 h (AR, Nrf2/ARE, ERβ, FXR, p53, and PR), 17 h (PPARγ), or 18 h (ERα) at 37 °C, and 1 µL/well LiveBLAzer™ FRET-B/G CCF4-AM substrate (ThermoFisher Scientific, Inc.) detection mix was added using an FRD and the plates were incubated at room temperature for 2 h. […] Data were expressed as the ratio of 460/530 nm emission values.

[6] = HEK293, primary qHTS, read-out: PGC/ERR-HEK293 Primary Viability EC50 (converted)
[7] = primary qHTS, viability counter screen
[8] = ERR-HEK293 Follow-Up EC50, follow-up (confirmation) screen
[9] = ERR-HEK293 Primary EC50, primary qHTS, 18 h, 15 concentrations
[10] = PGC/ERR-HEK293 Follow-Up EC50, follow-up screen
[11] = PGC/ERR-HEK293 Primary EC50, primary qHTS, 18 h

Molecule	EC50 [1, 6]	ERR-HEK293 Primary Viability EC50 [2, 7]	EC50 [3, 8]	EC50 [3, 9]	ERR-HEK293 Follow-Up Efficacy [3]	activity in the ERR assay [3]	ERR-HEK293 Primary Efficacy [3]	EC50 [4, 10]	EC50 [4, 11]	PGC/ERR-HEK293 Follow-Up Efficacy [4]	activity in the ERR/PGC assay [4]	PGC/ERR-HEK293 Primary Efficacy [4]	activity in the Nrf2-ARE assay [5]	ERR-HEK293 Follow-Up Viability EC50 [2]	further results
C=C(C)[C@H]1Cc2c(ccc3c2O[C@@H]2COc4cc(OC)c(OC)cc4[C@@H]2C3=O)O1 [Rotenone]	1010 nM	Inactive	16 ± 6.71 nM	13.3 ± 4.76 nM	−95.8 ± 17.8%	potent antagonists	−92.4 ± 3.03%	61.8 ± 61 nM	7.42 ± 2.07 nM	−41.9 ± 8.70%	antagonism	−31.0 ± 4.14%	–	–	Percent inhibition of mRNA gene expression, COX4I1 (COX4I1; 175 nM): 2.34 ± 3.78%; EC50 ([1]; HEK293, follow-up screen, read-out: PGC/ERR-HEK293 Follow-Up Viability EC50 (converted)): 2970 nM; EC50 ([2]; HEK293, read-out: ERR-HEK293 Follow-Up Viability EC50): 429 nM; Percent inhibition of mRNA gene expression, IDH3α (IDH3α; 175 nM): 22.4% and 22.4 ± 3.14%; Percent inhibition of mRNA gene expression, Cytochrome C (cytochrome c; 175 nM): 27.3% and 27.3 ± 7.33%
Acriflavine hydrochloride	–	–	–	–	–	–	–	–	–	–	–	–	inconclusive	–	Percent inhibition of mRNA gene expression, COX4I1 (COX4I1; 3 µM): 4.76 ± 8.24%; Percent inhibition of mRNA gene expression, COX8α (COX8α): 30.2 ± 18.2%; Percent inhibition of mRNA gene expression, IDH3α (IDH3α; 3 µM): 74.2% and 74.2 ± 9.92%; Percent inhibition of mRNA gene expression, Cytochrome C (cytochrome c; 3 µM): 41.8% and 41.8 ± 3.72%
C[C@@H]1CC[C@H]2[C@@H](C)C(=O)O[C@@H]3O[C@@]4(C)CC[C@@H]1[C@]32OO4 [Artemisinin]	–	Inactive	2440 ± 1220 nM	1010 ± 297 nM	−83.7 ± 14.6%	–	−71.6 ± 5.57%	14500 ± 10800 nM	1780 ± 401 nM	−72.8 ± 22.0%	antagonism	−57.6 ± 2.03%	active agonists	Inactive	ERR-HEK293 Primary Efficacy ([3]; listed as artemisinin): −71.6%; Percent inhibition of mRNA gene expression, IDH3α (IDH3α; 7 µM): 30.2%; Percent inhibition of mRNA gene expression, Cytochrome C (cytochrome c; 7 µM): 36.2%
COc1cc([C@@H]2c3cc4c(cc3[C@@H](O[C@@H]3O[C@@H]5CO[C@@H](C)O[C@H]5[C@H](O)[C@H]3O)[C@H]3COC(=O)[C@H]23)OCO4)cc(OC)c1O [Etoposide]	56300 nM	–	8120 ± 4420 nM	9240 ± 8560 nM	−88.9 ± 6.62%	antagonistic activity	−115 ± 6.85%	10700 ± 2440 nM	2100 ± 526 nM	89.3 ± 19.5%	agonist activity	62.9 ± 2.71%	active agonists	Inactive	PGC/ERR-HEK293 Follow-Up Viability EC50 ([1]; follow-up screen): Inactive; EC50 ([2]; HEK293, primary qHTS, viability counter screen, read-out: ERR-HEK293 Primary Viability EC50 (converted)): 56300 nM; Percent inhibition of mRNA gene expression, IDH3α (IDH3α; 18 µM): 7.19 ± 23.5%; Percent inhibition of mRNA gene expression, Cytochrome C (cytochrome c; 18 µM): 6.55 ± 3.18%
